Data from patent US4551273A, “Analgesic peptide and process for the preparation thereof” (Eisai Co., Ltd., priority 1983, dated 1985).

How the values were obtained:
[1] = tested on: biting response induced by pinching the mouse tail; test: Tail pinch assay; format: in vivo; details: intraventricular administration
Experimental: (§1) The following two methods (A) and (B) were employed to examine the analgesic effects of the sample resulting from intravenous or intraventricular administration.
(§2) The sample and control were injected to the tail vein in the case of intravenous administration and to the side cerebral ventricle in the case of intraventricular administration according to a method reported by Haley and McCormick(1).
Response time had been previously determined by a pressure stimulation to select the mice which had responded within 3 sec for the experiment. According to a method reported by Takagi et al.(3), the degree of pain was scored in the following three stages depending on the response time; 0 (shorter than four sec), 1 (four to eight sec), 2 (longer than eight sec). The analgesic effect was calculated by the following equation: [formula]

[2] = tested on: writhing syndrome in ddY male mouse; test: Acetic acid writhing assay; format: in vivo; details: for ED50, Method (A), intravenous / ED50, Method (A), intraventricular: mouse; for ED50, Method (A), intravenous: intravenous (tail vein) administration, acetic acid 10 min after sample; for ED50, Method (A), intraventricular: intraventricular administration, acetic acid 5 min after sample
Experimental: as §1, §2
(A) Acetic acid writhing assay
0.1 ml/10 g of a 0.7% solution of acetic acid was administered to a ddY male mouse of 20 to 26 g in body weight by an intraabdominal injection to examine the inhibiting effect on writhing syndrome which was mainly observed as a stretching of the hind legs as an indication of the analgesic effect. Acetic acid was administered intraabdominally five min after the intraventricular administration and 10 min after the intravenous administration of the sample. Then the resulting writhing syndromes were counted for 15 min.

[3] = administered intraventricularly; cited from earlier work
[4] = peptide purified from pig duodenum; cited from earlier work
[5] = target: kappa-receptor (Homo sapiens, UniProt P41145); details: subclass of opiate receptor; different from the μ-receptor; cited from earlier work
Sequence of kappa-receptor (P41145 whole entry): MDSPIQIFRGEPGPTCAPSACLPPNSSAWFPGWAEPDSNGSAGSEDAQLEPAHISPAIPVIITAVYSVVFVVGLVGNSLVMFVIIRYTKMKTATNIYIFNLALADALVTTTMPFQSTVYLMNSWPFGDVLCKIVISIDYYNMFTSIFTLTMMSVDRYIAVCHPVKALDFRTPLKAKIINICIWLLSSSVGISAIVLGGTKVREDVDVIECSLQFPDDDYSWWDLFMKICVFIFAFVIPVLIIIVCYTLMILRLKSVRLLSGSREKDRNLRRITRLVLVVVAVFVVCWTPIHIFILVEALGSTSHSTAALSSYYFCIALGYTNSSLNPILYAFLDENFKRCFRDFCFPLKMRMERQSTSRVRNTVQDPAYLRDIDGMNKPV

[6] = tested on: guinea pig longitudinal muscle of ileum; test: Assay with guinea pig longitudinal muscle of ileum (inhibition of electrically stimulated contraction); format: tissue-based
Experimental: (A) Assay with guinea pig longitudinal muscle of ileum
This assay was carried out according to the method reported by H. W. Kosterlitz et al. A mature guinea pig was sacrificed by cutting its jugular and subjected to an abdominal operation to take out its ileum as a piece of 40 to 50 cm in length from a region 15 to 20 cm apart from the ileocecal region. Then it was immediately introduced into Ringer's solution and cut into 10 cm portions. The longitudinal muscle was peeled off from each piece by using a scalpel and an applicator, wound with a string and suspended in an isothermal glass cell of 6 ml in volume. Subsequently it was stimulated electrically (0.1 Hz, 0.5 ms, 80-90 V) with platinum electrodes fitted at the upper and lower sides of the cell to record the resulting contractions through a transducer.
H. W. Kosterlitz, A. A. Waterfield: Annu. Rev. Pharmacol., 15, 29 (1975).

[7] = tested on: mouse vas deferens; test: Assay with mouse vas deferens (inhibition of electrically stimulated contraction); set-up: species or system isolated tissue
Experimental: (B) Assay with mouse vas deferens
This assay was carried out according to the method reported by Hughes et al. A mature male mouse was decapitated and phlebotomized. Then it was immediately subjected to an abdominal operation to take out its right and left vas deferens. Sperm clogged in the ducts was forced out with a pincette in Ringer's solution and both ends of the two ducts were united with a string to form a ring. Then it was stimulated electrically (0.1 Hz, 1 ms, 90 V) in the same manner as described in (A).
Hughes H. W., Kosterlitz H. W., Leslie F. M.: Br. J. Pharmacol., 53, 371 (1975).

## CN1CC[C@]23c4c5ccc(O)c4O[C@H]2[C@@H](O)C=C[C@H]3[C@H]1C5 [Morphine, reference compound]
[1]
  ED50, Method (B), intraventricular: 0.24 nmol/head
[2]
  ED50, Method (A), intravenous: 32 nmol/head
  ED50, Method (A), intraventricular: 0.63 nmol/head

## Tyr-Gly-Gly-Phe-Leu-Arg-Arg-Ile-Arg-Pro-Lys-Leu-Lys-Trp-Asp-Asp-Gln (YGGFLRRIRPKLKWDDQ; printed: Tyr-Gly-Gly-Phe-Leu-Arg-Arg-Ile-Arg-Pro-Lys-Leu-Lys-Trp-Asp-Asp-Gln) [prototype peptide, opioid peptide from pig duodenum, found earlier by some of the inventors; called prototype peptide in b11]
[3]
  analgesic effect: high analgesic effect
[4]
  morphine-like activity relative to morphine: several hundred times as high as morphine
[5]
  receptor selectivity: combined selectively with a kappa-receptor

## CC[C@@H](C)[C@@H](NC(=O)[C@H](CCCNC(=N)N)NC(=O)[C@H](CCCNC(=N)N)NC(=O)[C@H](CC(C)C)NC(=O)[C@H](Cc1ccccc1)NC(=O)CNC(=O)CNC(=O)[C@H](Cc1ccc(O)cc1)NC)C(=O)N[C@@H](CCCNC(=N)N)C(=O)N1CCC[C@H]1C(=O)N[C@@H](CCCCN)C(=O)N[C@H](CC(C)C)C(=O)N[C@@H](CCCCN)C(=O)N[C@@H](Cc1c[nH]c2ccccc12)C(N)=O [Compound of the present invention, N-Me-Tyr-Gly-Gly-Phe-Leu-Arg-Arg-D.Ile-Arg-Pro-Lys-D.Leu-Lys-Trp-NH2]
[1]
  ED50, Method (B), intraventricular: 0.017 nmol/head
[2]; intravenous administration
  analgesic effect compared with morphine on a molar basis: higher than that of morphine
[2]
  ED50, Method (A), intravenous: 3.4 nmol/head
  ED50, Method (A), intraventricular: 0.017 nmol/head
[6]; concentration required to decrease electrically stimulated contraction to 50%, guinea pig ileum longitudinal muscle, read-out: IC50, Method (A)
  IC50: 0.35 ± 0.2 nM
[6]; guinea pig longitudinal muscle of ileum, relative to morphine
  inhibition of contraction, fold as highly as morphine: approximately 270 fold
[7]; concentration required to decrease electrically stimulated contraction to 50%, read-out: IC50, Method (B)
  IC50: 1.1 ± 0.4 nM
[7]; relative to morphine
  inhibition of contraction, fold as highly as morphine: approximately 970 fold
